Laboratory results reported in ChEMBL document CHEMBL5230157, “The natural anthraquinone dye purpurin exerts antibacterial activity by perturbing the FtsZ assembly” (Bioorg Med Chem, 2021).
Calls of active or inactive are those of the source. The rule behind the calls is not given here.

Assays:
[1] = molecular target: T1, Cell division protein FtsZ (Escherichia coli K-12) (UniProt P0A9A6); assay: Inhibition of KCl-induced Escherichia coli BL21 FtsZ polymerization at 80 uM incubate for 10 min followed by KCl stimulation by spectrofluorimeter based light-scattering assay
T1 sequence (whole entry): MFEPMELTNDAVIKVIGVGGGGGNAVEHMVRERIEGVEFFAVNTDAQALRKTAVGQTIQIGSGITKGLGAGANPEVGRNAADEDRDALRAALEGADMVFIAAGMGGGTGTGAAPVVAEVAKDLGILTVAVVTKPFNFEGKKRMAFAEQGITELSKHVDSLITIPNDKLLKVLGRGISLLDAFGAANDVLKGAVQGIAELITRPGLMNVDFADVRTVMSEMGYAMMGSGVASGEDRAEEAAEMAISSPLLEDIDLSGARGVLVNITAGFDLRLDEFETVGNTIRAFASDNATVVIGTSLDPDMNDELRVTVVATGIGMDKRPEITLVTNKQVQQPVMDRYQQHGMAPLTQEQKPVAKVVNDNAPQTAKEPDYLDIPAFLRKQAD

[2] = molecular target: T1, Cell division protein FtsZ (Escherichia coli K-12); assay: Inhibition of Escherichia coli BL21 FtsZ assessed as inhibition of KCl-induced GTPase activity at 20 uM preincubated for 10 mins followed by KCl stimulation and measured after 10 mins by malachite green ammonium molybdate dye based spectroscopic analysis; conditions: time 20.0 min
HeLa [3] = assay: Antiproliferative activity against human HeLa cells assessed as inhibition of cell proliferation at 100 uM incubated for 24 hrs by sulforhodamine B assay; format: functional; set-up: scale not given: the % may be the effect or the level left
[4] = molecular target: T1, Cell division protein FtsZ (Escherichia coli K-12); assay: Inhibition of KCl-induced Escherichia coli BL21 FtsZ polymerization assessed as decrease in FtsZ polymer average length at 80 uM incubate for 1 hrs by […] staining based fluorescence microscopy
Escherichia coli [5] = assay: Antibacterial activity against Escherichia coli XL1 assessed as bacterial growth inhibition at 80 uM by spectrophotometric method; format: functional; conditions: read-out: GI
Bacillus subtilis [6] = assay: Antibacterial activity against Bacillus subtilis 168 assessed as bacterial growth inhibition at 10 uM by spectrophotometric method; format: functional; conditions: read-out: GI
[7] = molecular target: T2, Cell division protein FtsZ (Bacillus subtilis) (UniProt A5Z1V5); assay: Inhibition of Bacillus subtilis 168 FtsZ assessed as effect on nucleoid segregation at 7 uM for 4 hrs by immunostaining based fluorescent microscopy
T2 sequence (whole entry): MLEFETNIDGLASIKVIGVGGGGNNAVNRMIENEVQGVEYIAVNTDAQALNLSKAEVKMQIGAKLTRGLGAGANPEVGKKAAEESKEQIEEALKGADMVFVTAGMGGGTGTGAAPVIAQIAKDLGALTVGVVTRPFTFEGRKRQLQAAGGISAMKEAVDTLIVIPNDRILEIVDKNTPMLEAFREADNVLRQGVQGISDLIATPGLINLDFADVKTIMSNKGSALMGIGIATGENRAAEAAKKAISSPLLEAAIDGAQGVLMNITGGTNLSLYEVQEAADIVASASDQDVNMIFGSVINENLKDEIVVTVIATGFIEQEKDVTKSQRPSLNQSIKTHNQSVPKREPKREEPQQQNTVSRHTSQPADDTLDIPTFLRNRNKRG

Bacillus subtilis [8] = assay: Antibacterial activity against Bacillus subtilis 168 assessed as fold increase in average cell length at 7 uM incubated for 4 hrs by fluorescent microscopy; format: functional
Bacillus subtilis [9] = assay: Antibacterial activity against Bacillus subtilis 168 assessed as increase in average cell length at 7 uM incubated for 4 hrs in 23% of bacterial cells by fluorescent microscopy; format: functional
Bacillus subtilis [10] = assay: Antibacterial activity against Bacillus subtilis 168 assessed as bacterial growth inhibition at 20 uM by spectrophotometric method; format: functional; conditions: read-out: GI
[11] = molecular target: T2, Cell division protein FtsZ (Bacillus subtilis); assay: Inhibition of Bacillus subtilis 168 FtsZ assessed as decrease FtsZ ring at mid bacterial cells at 7 uM for 4 hrs by immunostaining based fluorescent microscopy
[12] = molecular target: T1, Cell division protein FtsZ (Escherichia coli K-12); assay: Inhibition of KCl-induced Escherichia coli BL21 FtsZ polymerization assessed as decrease in FtsZ polymer thickness at 80 uM incubate for 1 hrs by […] staining based fluorescence microscopy
Escherichia coli [13] = assay: Antibacterial activity against Escherichia coli XL1 assessed as bacterial growth inhibition at 200 uM by spectrophotometric method; format: functional; conditions: read-out: GI
[14] = molecular target: T3, Cell division protein FtsZ (Escherichia coli K-12, UniProt P0A9A6); assay: Binding affinity to Escherichia coli BL21 FtsZ assessed as dissociation constant of hydrophobic probe ANS-FtsZ complex fluorescence quenching incubated for 30 mins by double reciprocal plot analysis
T3 sequence (P0A9A6 whole entry): T1 sequence (whole entry)

Bacillus subtilis [15] = assay: Antibacterial activity against Bacillus subtilis 168 assessed as increase in average cell length at 7 uM incubated for 4 hrs in 82% of bacterial cells by fluorescent microscopy; format: functional
Escherichia coli [16] = assay: Antibacterial activity against Escherichia coli XL1 assessed as bacterial growth inhibition at 30 uM by spectrophotometric method; format: functional; conditions: read-out: GI
Bacillus subtilis [17] = assay: Antibacterial activity against Bacillus subtilis 168 assessed as increase in average cell length at 7 uM incubated for 4 hrs in 45% of bacterial cells by fluorescent microscopy; format: functional
HeLa [18] = assay: Antiproliferative activity against human HeLa cells assessed as inhibition of cell proliferation at 20 uM incubated for 24 hrs by sulforhodamine B assay; format: functional; set-up: scale not given: the % may be the effect or the level left
[19] = molecular target: T2, Cell division protein FtsZ (Bacillus subtilis); assay: Inhibition of Bacillus subtilis PL642 GFP-tagged FtsZ assessed as decrease FtsZ ring at mid bacterial cells at 7 uM for 4 hrs by immunostaining based fluorescent microscopy
Escherichia coli [20] = assay: Antibacterial activity against Escherichia coli XL1 assessed as bacterial growth inhibition at 300 uM by spectrophotometric method; format: functional; conditions: read-out: GI
[21] = molecular target: T2, Cell division protein FtsZ (Bacillus subtilis); assay: Inhibition of Bacillus subtilis PL642 GFP-tagged FtsZ assessed as effect on nucleoid segregation at 7 uM for 4 hrs by immunostaining based fluorescent microscopy
[22] = molecular target: T1, Cell division protein FtsZ (Escherichia coli K-12); assay: Binding affinity to Escherichia coli BL21 FtsZ assessed as hydrophobic probe ANS-FtsZ complex fluorescence quenching at 80 uM for 30 mins by fluorescence analysis
[23] = molecular target: T4, Cell division protein FtsZ (Bacillus subtilis, UniProt A5Z1V5); assay: Binding affinity to Bacillus subtilis FtsZ assessed as dissociation constant of intrinsic tryptophan quenching incubated for 30 mins by double reciprocal plot analysis
T4 sequence (A5Z1V5 whole entry): T2 sequence (whole entry)

Bacillus subtilis [24] = assay: Antibacterial activity against Bacillus subtilis 168 assessed as bacterial growth inhibition at 30 uM by spectrophotometric method; format: functional; conditions: read-out: GI
HeLa [25] = assay: Antiproliferative activity against human HeLa cells assessed as inhibition of cell proliferation at 300 uM incubated for 24 hrs by sulforhodamine B assay; format: functional; set-up: scale not given: the % may be the effect or the level left
HeLa [26] = assay: Antiproliferative activity against human HeLa cells assessed as inhibition of cell proliferation at 50 uM incubated for 24 hrs by sulforhodamine B assay; format: functional; set-up: scale not given: the % may be the effect or the level left

O=C1c2ccccc2C(=O)c2c(O)c(O)cc(O)c21 [PURPURIN]
inhibition [1]: 47%
inhibition [2]: 15.9%
Activity (HeLa [3]): 45%
inhibition [4]: Active
inhibition of growth at 80 µM (Escherichia coli [5]): 38%
inhibition of growth at 10 µM (Bacillus subtilis [6]): 65%
Activity [7]: inactive
fold change (FC) (Bacillus subtilis [8]): 10
Activity (Bacillus subtilis [9]): 50.1 um
inhibition of growth at 20 µM (Bacillus subtilis [10]): 86%
Activity [11]: Active
inhibition [12]: Active
inhibition of growth at 200 µM (Escherichia coli [13]): 67.8%
Kd [14]: 11 µM
Activity (Bacillus subtilis [15]): 20.1 um
inhibition of growth at 30 µM (Escherichia coli [16]): 25.6%
Activity (Bacillus subtilis [17]): 10.1 um
Activity (HeLa [18]): 14%
Activity [19]: Active
inhibition of growth at 300 µM (Escherichia coli [20]): 94.7%
Activity [21]: inactive
Activity [22]: 81%
Kd [23]: 5.2 µM
inhibition of growth at 30 µM (Bacillus subtilis [24]): 100%
Activity (HeLa [25]): 89%
Activity (HeLa [26]): 28%
